{"source": "patent US10087172B2", "about": "“Compounds and their methods of use” (AGIOS PHARMACEUTICALS, INC, priority 2012, dated 2018)"}
{"biological_target": "T1, glutaminase (GAC) (Homo sapiens, UniProt O94925)", "T1 sequence (O94925 55-598 isoform O94925-3 limits assumed)": "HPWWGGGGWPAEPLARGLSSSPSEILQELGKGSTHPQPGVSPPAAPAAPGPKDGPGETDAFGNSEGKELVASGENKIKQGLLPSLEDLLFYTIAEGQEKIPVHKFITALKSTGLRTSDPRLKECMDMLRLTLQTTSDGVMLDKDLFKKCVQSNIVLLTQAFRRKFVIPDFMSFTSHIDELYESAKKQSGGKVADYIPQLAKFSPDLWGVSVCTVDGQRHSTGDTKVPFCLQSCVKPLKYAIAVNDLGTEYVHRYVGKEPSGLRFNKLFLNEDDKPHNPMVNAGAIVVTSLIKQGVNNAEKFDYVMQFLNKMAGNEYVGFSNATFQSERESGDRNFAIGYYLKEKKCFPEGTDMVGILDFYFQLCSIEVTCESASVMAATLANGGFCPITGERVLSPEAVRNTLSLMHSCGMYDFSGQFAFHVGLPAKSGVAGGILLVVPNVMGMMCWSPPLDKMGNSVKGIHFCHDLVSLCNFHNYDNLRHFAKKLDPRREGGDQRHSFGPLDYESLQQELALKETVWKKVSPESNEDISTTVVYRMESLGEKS", "experiment": "Glutaminase (GAC) coupled endpoint enzymatic assay (glutamate dehydrogenase/diaphorase/resazurin, Ex544/Em590)", "type": "biochemical", "conditions": "inhibition of glutaminase, tested in an assay of Example A or Example B; class symbols A-E", "description": "In certain embodiments, exemplary compounds of Formula I include the compounds described in Table 1 and in the Examples. A compound described herein may be tested for its ability to inhibit glutaminase, e.g., by an assay as described in the Examples. For simplicity, the inhibition activity of these compounds is represented as an IC50 tested in an assay of Example A or Example B in Table 1. […] “N/A” refers to compounds wherein the IC50 is unavailable.\nIn this example, the enzymatic activity of glutaminase is measured through a coupled endpoint assay. Glutamine and phosphate are supplied to GAC at a concentration equal to Km and AC50, respectively, and GAC concentration is adjusted to give a linear reaction for 60 minutes. The glutamate produced is converted to 2-OG by a kinetic excess of glutamate dehydrogenase. This second step is configured for 2× Km for NAD, since excess NAD is inhibitory. However, a kinetic excess of the third coupling enzyme, diaphorase, recycles NAD from NADH to keep the NAD concentration constant during the timecourse of the assay. Diaphorase, also supplied in kinetic excess, oxidizes NADH produced by GDH back to NAD with the concomitant reduction of rezasurin to the highly fluorescent resorufin. Resorufin in measured after the assay is stopped with SDS by Ex544/Em590. A reduction in the signal indicates inhibition of some component of the coupled enzyme system. Prospective hits are counterscreened against GDH/diaphorase alone to remove hits to the coupling enzyme system in a second assay.\n2. Buffers 2× Buffer (300 mM NaCl, 100 mM HEPES pH 8.5, 0.1% BSA, 0.5 mM EDTA, 100 mM sodium phosphate pH 8.5) 5× Substrate Mix (1× Buffer final concentration, with 13 mM glutamine, 100 μM resazurin, 50 μg/ml diaphorase) 1.2× Enzyme Mix (1× Buffer final concentration, with 0.875 μg/ml GAC, 1.56 mM NAD, 6.25 units/ml GDH) Stop Mix (6% SDS in ddH2O) Reaction Procedure 1. Add 1 μl compound in 100% DMSO 2. Add 40 μl of Enzyme Mix and incubate for 60 minute at room temperature 3. Add 10 μl of Substrate Mix to start reaction 4. Stop reaction with 25 μl of 6% SDS and read Ex544 Em 590", "units": {"IC50": "nM"}}
{"smiles": "O=C(CCc1ccccn1)Nc1nnc([C@H]2CCC[C@H](c3nnc(NC(=O)CCc4ccccn4)s3)C2)s1", "note": "[Compound 80, N,N′-(5,5′-((1S,3S)-cyclohexane-1,3-diyl)bis(1,3,4-thiadiazole-5,2-diyl))bis(3-(pyridin-2-yl)propanamide)]", "IC50": "100 to 500"}
{"smiles": "O=C(Cc1cccc(N2CC(F)(F)C2)n1)Nc1nnc([C@H]2CC[C@H](c3nnc(NC(=O)[C@H](O)c4ccccc4)s3)C2)s1", "note": "[Compound 378, (R)—N-(5-((1S,3S)-3-(5-(2-(6-(3,3-difluoroazetidin-1-yl)pyridin-2-yl)acetamido)-1,3,4-thiadiazol-2-yl)cyclopentyl)-1,3,4-thiadiazol-2-yl)-2-hydroxy-2-phenylacetamide]", "IC50": "< 100"}
{"smiles": "COc1ccc(CC(=O)Nc2nnc([C@H]3CCC[C@H](c4nnc(NC(=O)Cc5cccc(N6CC(F)(F)C6)n5)s4)C3)s2)cn1", "note": "[Compound 359]", "IC50": "< 100"}
{"smiles": "O=C(Cc1ccc(F)cc1)Nc1nnc([C@H]2CCC[C@H](c3nnc(NC(=O)Cc4ccc(F)cc4)s3)C2)s1", "note": "[Compound 88, N,N′-(5,5′-((1S,3S)-cyclohexane-1,3-diyl)bis(1,3,4-thiadiazole-5,2-diyl))bis(2-(4-fluorophenyl)acetamide)]", "IC50": "100 to 500"}
{"smiles": "Cc1cccc(CC(=O)Nc2nnc([C@H]3CCC[C@H](c4nnc(NC(=O)Cc5cccc(C)c5)s4)C3)s2)c1", "note": "[Compound 111, N,N′-(5,5′-((1S,3S)-cyclohexane-1,3-diyl)bis(1,3,4-thiadiazole-5,2-diyl))bis(2-m-tolylacetamide)]", "IC50": "100 to 500"}
{"smiles": "Cc1ccccc1CC(=O)Nc1nnc([C@H]2CCC[C@H](c3nnc(NC(=O)Cc4ccccc4C)s3)C2)s1", "note": "[Compound 83, N,N′-(5,5′-((1S,3S)-cyclohexane-1,3-diyl)bis(1,3,4-thiadiazole-5,2-diyl))bis(2-o-tolylacetamide)]", "IC50": "100 to 500"}
{"smiles": "O=C(Nc1nnc([C@H]2CCC[C@H](c3nnc(NC(=O)C4CCCC4)s3)C2)s1)C1CCCC1", "note": "[Compound 62, N,N′-(5,5′-((1S,3S)-cyclohexane-1,3-diyl)bis(1,3,4-thiadiazole-5,2-diyl))dicyclopentanecarboxamide]", "IC50": "1000 to 2000"}
{"smiles": "O=C(Cc1ccc(Cl)cc1)Nc1nnc([C@H]2CCC[C@H](c3nnc(NC(=O)Cc4ccc(Cl)cc4)s3)C2)s1", "note": "[Compound 50]", "IC50": "100 to 500"}
{"smiles": "O=C(Cc1cnccn1)Nc1nnc([C@H]2CCC[C@H](c3nnc(NC(=O)Cc4cnccn4)s3)C2)s1", "note": "(relative stereo) [Compound 76]", "IC50": "< 100"}
{"smiles": "Cc1cc(CC(=O)Nc2nnc([C@H]3CCC[C@H](c4nnc(NC(=O)Cc5cc(C)no5)s4)C3)s2)on1", "note": "[Compound 30, N,N′-(5,5′-((1S,3S)-cyclohexane-1,3-diyl)bis(1,3,4-thiadiazole-5,2-diyl))bis(2-(3-methylisoxazol-5-yl)acetamide)]", "IC50": "< 100"}
{"smiles": "CC(C)C(=O)Nc1nnc([C@H]2CCC[C@H](c3nnc(NC(=O)C(C)C)s3)C2)s1", "note": "(single isomer, unassigned) [Compound 98]", "IC50": "100 to 500"}
{"smiles": "O=C(Cc1cccc(N2CC(F)(F)C2)n1)Nc1nnc([C@H]2CC[C@H](c3nnc(NC(=O)[C@@H](O)c4ccccc4)s3)C2)s1", "note": "[Compound 377, (S)—N-(5-((1S,3S)-3-(5-(2-(6-(3,3-difluoroazetidin-1-yl)pyridin-2-yl)acetamido)-1,3,4-thiadiazol-2-yl)cyclopentyl)-1,3,4-thiadiazol-2-yl)-2-hydroxy-2-phenylacetamide]", "IC50": "< 100"}
{"smiles": "O=C(Cc1cc(OC(F)F)ccn1)Nc1nnc([C@H]2CCC[C@H](c3nnc(NC(=O)Cc4cc(OC(F)F)ccn4)s3)C2)s1", "note": "[Compound 356, N,N′-(5,5′-((1S,3S)-cyclohexane-1,3-diyl)bis(1,3,4-thiadiazole-5,2-diyl))bis(2-(4-(difluoromethoxy)pyridin-2-yl)acetamide)]", "IC50": "< 100"}
{"smiles": "O=C(Cc1cncc(N2CC(F)(F)C2)n1)Nc1nnc([C@H]2CCC[C@H](c3nnc(NC(=O)Cc4cncc(N5CC(F)(F)C5)n4)s3)C2)s1", "note": "[Compound 354]", "IC50": "< 100"}
{"smiles": "O=C(Nc1nnc([C@H]2CCC[C@H](c3nnc(NC(=O)[C@H](O)c4ccccc4)s3)C2)s1)[C@H](O)c1ccccc1", "note": "[Compound 370, (2R,2′R)—N,N′-(5,5′-((1S,3S)-cyclohexane-1,3-diyl)bis(1,3,4-thiadiazole-5,2-diyl))bis(2-hydroxy-2-phenylacetamide)]", "IC50": "< 100"}
{"smiles": "CC(=O)N(C)c1ccc(CC(=O)Nc2nnc([C@H]3CCC[C@H](c4nnc(NC(=O)Cc5ccc(N(C)C(C)=O)cn5)s4)C3)s2)nc1", "note": "[Compound 368]", "IC50": "< 100"}
{"smiles": "O=C(Nc1nnc([C@H]2CC[C@H](c3nnc(NC(=O)[C@@H](O)c4ccccc4)s3)C2)s1)[C@@H](O)c1ccccc1", "note": "[Compound 379]", "IC50": "< 100"}
{"smiles": "O=C(Nc1nnc([C@H]2CCC[C@H](c3nnc(NC(=O)C4CCOC4)s3)C2)s1)C1CCOC1", "note": "(stereo partly drawn) [Compound 48, N,N′-(5,5′-((1S,3S)-cyclohexane-1,3-diyl)bis(1,3,4-thiadiazole-5,2-diyl))bis(tetrahydrofuran-3-carboxamide)]", "IC50": "500 to 1000"}
{"smiles": "N#Cc1ccc(CC(=O)Nc2nnc([C@H]3CCC[C@H](c4nnc(NC(=O)Cc5ccc(C#N)cc5)s4)C3)s2)cc1", "note": "[Compound 74, N,N′-(5,5′-((1S,3S)-cyclohexane-1,3-diyl)bis(1,3,4-thiadiazole-5,2-diyl))bis(2-(4-cyanophenyl)acetamide)]", "IC50": "100 to 500"}
{"smiles": "N#Cc1cccc(CC(=O)Nc2nnc([C@H]3CCC[C@H](c4nnc(NC(=O)Cc5cccc(OC(F)(F)F)c5)s4)C3)s2)n1", "note": "[Compound 375, 2-(6-cyanopyridin-2-yl)-N-(5-((1S,3S)-3-(5-(2-(3-(trifluoromethoxy)phenyl)acetamido)-1,3,4-thiadiazol-2-yl)cyclohexyl)-1,3,4-thiadiazol-2-yl)acetamide]", "IC50": "< 100"}
{"smiles": "N#Cc1cccc(CC(=O)Nc2nnc([C@H]3CCC[C@H](c4nnc(NC(=O)Cc5cccc(N6CC(N)C6)n5)s4)C3)s2)c1", "note": "[Compound 366, 2-(6-(3-aminoazetidin-1-yl)pyridin-2-yl)-N-(5-((1S,3S)-3-(5-(2-(3-cyanophenyl)acetamido)-1,3,4-thiadiazol-2-yl)cyclohexyl)-1,3,4-thiadiazol-2-yl)acetamide]", "IC50": "< 100"}
{"smiles": "COc1cccc(CC(=O)Nc2nnc([C@H]3CCC[C@H](c4nnc(NC(=O)Cc5cccc(OC)n5)s4)C3)s2)n1", "note": "(single isomer, unassigned) [Compound 84]", "IC50": "< 100"}
{"smiles": "O=C(Cc1cccnc1)Nc1nnc([C@H]2CCC[C@H](c3nnc(NC(=O)Cc4cccnc4)s3)C2)s1", "note": "[Compound 28, N,N′-(5,5′-((1S,3S)-cyclohexane-1,3-diyl)bis(1,3,4-thiadiazole-5,2-diyl))bis(2-(pyridin-3-yl)acetamide)]", "IC50": "< 100"}
{"smiles": "CN(C)c1cccnc1CC(=O)Nc1nnc([C@H]2CCC[C@H](c3nnc(NC(=O)Cc4ncccc4N(C)C)s3)C2)s1", "note": "(relative stereo) [Compound 115, N,N′-(5,5′-(trans-cyclohexane-1,3-diyl)bis(1,3,4-thiadiazole-5,2-diyl))bis(2-(3-(dimethylamino)pyridin-2-yl)acetamide)]", "IC50": "500 to 1000"}
{"smiles": "O=C(Cc1cccc(OC(F)(F)F)c1)Nc1nnc([C@H]2CCC[C@H](c3nnc(NC(=O)[C@H](O)c4ccccc4)s3)C2)s1", "note": "[Compound 365, (R)-2-hydroxy-2-phenyl-N-(5-((1S,3S)-3-(5-(2-(3-(trifluoromethoxy)phenyl)acetamido)-1,3,4-thiadiazol-2-yl)cyclohexyl)-1,3,4-thiadiazol-2-yl)acetamide]", "IC50": "< 100"}
{"smiles": "N#Cc1ccccc1CC(=O)Nc1nnc([C@H]2CCC[C@H](c3nnc(NC(=O)Cc4ccccc4C#N)s3)C2)s1", "note": "[Compound 72, N,N′-(5,5′-((1S,3S)-cyclohexane-1,3-diyl)bis(1,3,4-thiadiazole-5,2-diyl))bis(2-(2-cyanophenyl)acetamide)]", "IC50": "< 100"}
